Experimental data as given in patent publication US9656988B2 (Pharmacyclics LLC, priority 2013, dated 2017).
Where two headings read alike, the source gives them in different places.

Biological target: BTK (Homo sapiens (Human), UniProt Q06187)
Assay: Btk in vitro inhibitory activity (one of Method A TR-FRET, Method B electrophoretic mobility shift, Method C radiometric filter binding)
Assay type: biochemical
[1] = determined using one of the methods of Example 355a, 355b and 355c, read-out: BTK IC50

BTK, sequence (Q06187 whole entry): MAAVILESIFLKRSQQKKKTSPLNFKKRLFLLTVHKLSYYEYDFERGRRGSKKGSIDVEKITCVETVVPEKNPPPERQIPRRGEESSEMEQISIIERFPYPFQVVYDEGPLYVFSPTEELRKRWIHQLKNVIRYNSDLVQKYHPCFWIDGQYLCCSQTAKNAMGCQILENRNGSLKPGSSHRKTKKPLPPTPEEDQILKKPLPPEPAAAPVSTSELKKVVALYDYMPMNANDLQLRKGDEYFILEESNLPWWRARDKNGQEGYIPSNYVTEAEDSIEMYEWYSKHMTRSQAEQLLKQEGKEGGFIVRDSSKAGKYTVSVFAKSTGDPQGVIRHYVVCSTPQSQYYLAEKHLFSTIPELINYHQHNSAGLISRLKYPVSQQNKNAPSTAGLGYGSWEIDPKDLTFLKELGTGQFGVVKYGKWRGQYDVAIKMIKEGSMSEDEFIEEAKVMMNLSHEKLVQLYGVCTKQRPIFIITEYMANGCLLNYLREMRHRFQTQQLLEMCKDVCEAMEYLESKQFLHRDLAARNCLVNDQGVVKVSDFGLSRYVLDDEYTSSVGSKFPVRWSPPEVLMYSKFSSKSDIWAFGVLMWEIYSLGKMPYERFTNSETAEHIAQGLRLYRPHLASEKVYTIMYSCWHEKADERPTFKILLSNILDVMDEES

Structure (SMILES) | IC50 [1] | IC50 (read-out: Btk (IC50)) | IC50 | IC50 (Btk (IC50))
Cc1cc(Nc2nc(N3CCC[C@@H](NC(=O)N(C)C)[C@H]3C)cnc2C(N)=O)sn1 [Example 242, 5-((2R,3R)-3-(3,3-dimethylureido)-2-methylpiperidin-1-yl)-3-(3-methylisothiazol-5-ylamino)pyrazine-2-carboxamide] | < 10 nM |  |  | 
CCOC(=O)N[C@@H]1CCCN(c2cnc(C(N)=O)c(Nc3ccc(C4CCN(C5CCCC5)CC4)cc3)n2)C1 [Example 298, (R)-ethyl 1-(5-carbamoyl-6-(4-(1-cyclopentylpiperidin-4-yl)phenylamino)pyrazin-2-yl)piperidin-3-ylcarbamate] | < 10 nM | < 10 nM |  | 
CC(C)(C)c1ccc(C(=O)N[C@@H]2CCCN(c3nnc(C(N)=O)c(Nc4cccc(-c5ncccn5)c4)n3)C2)cc1 [Example 57, (R)-3-(3-(4-tert-butylbenzamido)piperidin-1-yl)-5-(3-(pyrimidin-2-yl)phenylamino)-1,2,4-triazine-6-carboxamide] | 100 to 1000 nM |  |  | 
NC(=O)c1nnc(N2CCC[C@@H](NC(=O)c3ccc(Cl)s3)C2)nc1Nc1ccc(C(=O)N2CCOCC2)cc1 [Example 17, (R)-3-(3-(5-chlorothiophene-2-carboxamido)piperidin-1-yl)-5-(4-(morpholine-4-carbonyl)phenylamino)-1,2,4-triazine-6-carboxamide] | < 10 nM |  |  | 
COCCOc1ccc(Nc2nc(N3CCC[C@@H](NC(=O)c4ccc(OC)cc4)C3)cnc2C(N)=O)cc1 [Example 112, (R)-5-(3-(4-methoxybenzamido)piperidin-1-yl)-3-(4-(2-methoxyethoxy)phenylamino)pyrazine-2-carboxamide] | 10 to 100 nM | 10 to 100 nM |  | 
CN(C/C=C/C(=O)N1CCC[C@@H](N(C)c2cnc(C(N)=O)c(Nc3ccc(C(=O)N4CCOCC4)cc3)n2)C1)C1CC1 [Example 156, (R,E)-5-((1-(4-(cyclopropyl(methyl)amino)but-2-enoyl)piperidin-3-yl)(methyl)amino)-3-(4-(morpholine-4-carbonyl)phenylamino)pyrazine-2-carboxamide] | < 10 nM | < 10 nM |  | 
CN(C)C/C=C/C(=O)N1CCC[C@@H](N(C)c2cnc(C(N)=O)c(Nc3ccc(Oc4ccccc4)cc3)n2)C1 [Example 158, (R,E)-5-((1-(4-(dimethylamino)but-2-enoyl)piperidin-3-yl)(methyl)amino)-3-(4-phenoxyphenylamino)pyrazine-2-carboxamide] | < 10 nM |  |  | 
CN1CCN([C@@H]2CCCN(c3cnc(C(N)=O)c(Nc4ccc(C5(C)CCN(C6CCCC6)CC5)cc4)n3)C2)C1=O [Example 267, (R)-3-(4-(1-cyclopentyl-4-methylpiperidin-4-yl)phenylamino)-5-(3-(3-methyl-2-oxoimidazolidin-1-yl)piperidin-1-yl)pyrazine-2-carboxamide] | < 10 nM | < 10 nM |  | 
CN1CCN([C@@H]2CCCN(c3cnc(C(N)=O)c(Nc4ccc(C5(C)CCN(C(=O)C6CC6)CC5)cc4)n3)C2)C1=O [Example 270, (R)-3-(4-(1-(cyclopropanecarbonyl)-4-methylpiperidin-4-yl)phenylamino)-5-(3-(3-methyl-2-oxoimidazolidin-1-yl)piperidin-1-yl)pyrazine-2-carboxamide] | < 10 nM | < 10 nM |  | 
CN(C(=O)N[C@@H]1CCCN(c2cnc(C(N)=O)c(Nc3ccc(C4(C(N)=O)CC4)cc3)n2)C1)c1cc(Cl)cc(C(F)(F)F)c1 [Example 324, (R)-3-(4-(1-carbamoylcyclopropyl)phenylamino)-5-(3-(3-(3-chloro-5-(trifluoromethyl)phenyl)-3-methylureido)piperidin-1-yl)pyrazine-2-carboxamide] | 10 to 100 nM | 10 to 100 nM |  | 
NC(=O)c1ncc(N2CCC[C@@H](NC(=O)c3cc4ccccc4s3)C2)nc1Nc1ccc(C2CCN(C3CC3)CC2)cc1 [Example 315, (R)-5-(3-(benzo[b]thiophene-2-carboxamido)piperidin-1-yl)-3-(4-(1-cyclopropylpiperidin-4-yl)phenylamino)pyrazine-2-carboxamide] | 10 to 100 nM |  | 10 to 100 nM | 
NC(=O)c1nnc(N2CCC[C@@H](NC(=O)c3ccccc3)C2)nc1Nc1ccc(C(=O)N2CCOCC2)cc1 [Example 5, (R)-3-(3-benzamidopiperidin-1-yl)-5-(4-(morpholine-4-carbonyl)phenylamino)-1,2,4-triazine-6-carboxamide] | < 10 nM |  |  | 
CN(C)C(=O)N[C@@H]1CCCN(c2cnc(C(N)=O)c(Nc3ccc(C4CCNCC4)cc3)n2)C1 [Example 154, (R)-5-(3-(3,3-dimethylureido)piperidin-1-yl)-3-(4-(piperidin-4-yl)phenylamino)pyrazine-2-carboxamide] | < 10 nM |  |  | 
NC(=O)c1ncc(N2CCC[C@H]3NCC[C@H]32)nc1Nc1ccc(C2CCN(C3CCCC3)CC2)cc1 [Example 286, 3-(4-(1-cyclopentylpiperidin-4-yl)phenylamino)-5-((3aR,7aR)-dihydro-1H-pyrrolo[3,2-b]pyridin-4(2H,5H,6H,7H,7aH)-yl)pyrazine-2-carboxamide] | 10 to 100 nM | 10 to 100 nM |  | 
COc1ccc(C(=O)N[C@@H]2CCCN(c3cnc(C(N)=O)c(Nc4ccc(C5CCN(C(C)C)CC5)cc4)n3)C2)cc1 [Example 134, (R)-3-(4-(1-isopropylpiperidin-4-yl)phenylamino)-5-(3-(4-methoxybenzamido)piperidin-1-yl)pyrazine-2-carboxamide] | < 10 nM | < 10 nM |  | 
CC(C)(C)c1ccc(C(=O)N[C@@H]2CCCN(c3cnc(C(N)=O)c(Nc4ccc(C(=O)N5CCOCC5)cc4)n3)C2)cc1 [Example 73, (R)-5-(3-(4-tert-butylbenzamido)piperidin-1-yl)-3-(4-(morpholine-4-carbonyl)phenylamino)pyrazine-2-carboxamide] | < 10 nM |  |  | 
CN(C)C(=O)N[C@@H]1CCCN(c2cnc(C(N)=O)c(Nc3ccc(C4CCN(C(=O)CC#N)CC4)cc3)n2)C1 [Example 153, (R)-3-(4-(1-(2-cyanoacetyl)piperidin-4-yl)phenylamino)-5-(3-(3,3-dimethylureido)piperidin-1-yl)pyrazine-2-carboxamide] | < 10 nM | < 10 nM |  | 
NC(=O)c1nnc(N[C@@H]2CCCNC2)nc1Nc1ccc(C(=O)N2CCOCC2)cc1 [Example 61, (R)-5-(4-(morpholine-4-carbonyl)phenylamino)-3-(piperidin-3-ylamino)-1,2,4-triazine-6-carboxamide] | 1000 to 10000 nM |  |  | 
COc1ccc(C(=O)N[C@@H]2CCCN(c3cnc(C(N)=O)c(Nc4ccc(N5CCS(=O)(=O)CC5)cc4)n3)C2)cc1 [Example 161, (R)-5-(3-(4-methoxybenzamido)piperidin-1-yl)-3-(4-(1,1-dioxothiomorpholino)phenylamino)pyrazine-2-carboxamide] | < 10 nM | < 10 nM |  | 
NC(=O)c1nnc(N2CCC[C@@H](N3Cc4ccccc4C3=O)C2)nc1Nc1ccc(C(=O)N2CCOCC2)cc1 [Example 104, (R)-5-(4-(morpholine-4-carbonyl)phenylamino)-3-(3-(1-oxoisoindolin-2-yl)piperidin-1-yl)-1,2,4-triazine-6-carboxamide] | 10 to 100 nM |  |  | 
CN(C)C(=O)N[C@@H]1CCCN(c2cnc(C(N)=O)c(Nc3ccc(C4(C)CCNCC4)cc3)n2)C1 [Example 221, (R)-5-(3-(3,3-dimethylureido)piperidin-1-yl)-3-(4-(4-methylpiperidin-4-yl)phenylamino)pyrazine-2-carboxamide] | < 10 nM | < 10 nM |  | 
NC(=O)c1nnc(N2CCC[C@@H](NC(=O)c3cccnc3)C2)nc1Nc1ccc(C(=O)N2CCOCC2)cc1 [Example 13, (R)-5-(4-(morpholine-4-carbonyl)phenylamino)-3-(3-(nicotinamido)piperidin-1-yl)-1,2,4-triazine-6-carboxamide] | 10 to 100 nM |  |  | 
CC(C)(C)c1ccc(C(=O)N[C@@H]2CCCN(c3nnc(C(N)=O)c(Nc4ccc(-c5ncccn5)cc4)n3)C2)cc1 [Example 56, (R)-3-(3-(4-tert-butylbenzamido)piperidin-1-yl)-5-(4-(pyrimidin-2-yl)phenylamino)-1,2,4-triazine-6-carboxamide] | 100 to 1000 nM |  |  | 
Cc1ccc(C(=O)N[C@@H]2CCCN(c3nnc(C(N)=O)c(Nc4ccc(C(=O)N5CCOCC5)cc4)n3)C2)cc1 [Example 4, (R)-3-(3-(4-methylbenzamido)piperidin-1-yl)-5-(4-(morpholine-4-carbonyl)phenylamino)-1,2,4-triazine-6-carboxamide] | < 10 nM |  |  | 
C[C@@H]1[C@H](N2CCN(C)C2=O)CCCN1c1cnc(C(N)=O)c(Nc2ccc(C3(C)CCNCC3)cc2)n1 [Example 252, 5-((2R,3R)-2-methyl-3-(3-methyl-2-oxoimidazolidin-1-yl)piperidin-1-yl)-3-(4-(4-methylpiperidin-4-yl)phenylamino)pyrazine-2-carboxamide] | < 10 nM |  |  | < 10 nM
COc1ccc(C(=O)N[C@@H]2CCCN(c3cnc(C(N)=O)c(Nc4ccc(OCC[N+](C)(C)[O-])cc4)n3)C2)cc1 [Example 116, (R)-2-(4-(3-carbamoyl-6-(3-(4-methoxybenzamido)piperidin-1-yl)pyrazin-2-ylamino)phenoxy)-N,N-dimethylethanamine oxide] | 10 to 100 nM |  |  | 
NC(=O)c1ncc(N2CCC[C@@H](NC(=O)c3ccc(-c4ccccc4)nc3)C2)nc1Nc1ccc(C2CCN(C3CC3)CC2)cc1 [Example 319, (R)-3-(4-(1-cyclopropylpiperidin-4-yl)phenylamino)-5-(3-(6-phenylnicotinamido)piperidin-1-yl)pyrazine-2-carboxamide] | < 10 nM |  |  | 
C[C@@H]1[C@H](NC(=O)N(C)C)CCCN1c1cnc(C(N)=O)c(Nc2ccc(C3CCN(C4CCCC4)CC3)cc2)n1 [Example 232, 3-(4-(1-cyclopentylpiperidin-4-yl)phenylamino)-5-((2R,3R)-3-(3,3-dimethylureido)-2-methylpiperidin-1-yl)pyrazine-2-carboxamide] | < 10 nM | < 10 nM |  | 
CN1CCN([C@@H]2CCCN(c3cnc(C(N)=O)c(Nc4ccc(C5(C#N)CCN(C6CCCC6)CC5)cc4)n3)C2)C1=O [Example 271, (R)-3-(4-(4-cyano-1-cyclopentylpiperidin-4-yl)phenylamino)-5-(3-(3-methyl-2-oxoimidazolidin-1-yl)piperidin-1-yl)pyrazine-2-carboxamide] |  | < 10 nM |  | 
